Test results from PubChem BioAssay (NCI).
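Exposure lasted 48 hours, with cells grown in 96-well plates and compounds tested at five concentrations. Here, GI50 denotes the concentration required for 50% inhibition of growth. TGI: concentration producing complete growth inhibition.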

What was measured:
Assay in all cases: inhibition of tumour cell growth, NCI panel, 48 h
DMS 114 small cell lung = tested on: DMS 114 small cell lung
M19-MEL melanoma = tested on: M19-MEL melanoma
SNB-78 CNS = tested on: SNB-78 CNS
DU-145 prostate = tested on: DU-145 prostate
MDA-MB-231 breast = tested on: MDA-MB-231 breast
NCI/ADR-RES ovarian = tested on: NCI/ADR-RES ovarian
T-47D breast = tested on: T-47D breast
MDA-N = tested on: MDA-N

Structure (SMILES) | TGI (DMS 114 small cell lung) | TGI (M19-MEL melanoma) | TGI (SNB-78 CNS) | GI50 (DMS 114 small cell lung) | GI50 (DU-145 prostate) | TGI (DU-145 prostate) | GI50 (MDA-MB-231 breast) | TGI (MDA-MB-231 breast) | GI50 (NCI/ADR-RES ovarian) | TGI (NCI/ADR-RES ovarian) | GI50 (T-47D breast) | TGI (T-47D breast) | GI50 (MDA-N) | TGI (MDA-N)
CC(=O)NC(CCCCNC(=O)OCc1ccccc1)C(=O)NCc1ccccc1 (stereo not drawn) | > 100 µM | > 100 µM | > 100 µM | – | – | – | – | – | – | – | – | – | – | –
COc1cc(-c2cc(=O)c3cc4c(cc3[nH]2)OCO4)cc(OC)c1OC | > 100 µM | > 100 µM | > 100 µM | 83.8 µM | – | – | – | – | – | – | – | – | – | –
O=C(Oc1ccc(O)c2c(=O)n3c(cc12)[nH]c1ccccc13)c1ccccc1 | – | – | – | – | 30.5 µM | > 100 µM | 6.22 µM | 42.1 µM | 18.7 µM | 55 µM | 9.32 µM | 47.2 µM | – | –
COC(=O)CCC/C=C\C[C@H]1C=CC(=O)/C1=C/C[C@@H](O)CCc1cccc(C(F)(F)F)c1 | – | – | – | – | 2.59 µM | 10 µM | 4.65 µM | 17.1 µM | 2.81 µM | 10.9 µM | 3.45 µM | 17 µM | – | –
COc1cc(-c2cnn(C)c2)ccc1Nc1ncc2ccnc(N[C@@H](C)C(C)(C)C)c2n1 | – | – | – | – | > 100 µM | > 100 µM | 13.4 µM | > 100 µM | > 43.4 µM | > 100 µM | > 100 µM | > 100 µM | – | –
COc1ccc2c(c1)sc1nc(-c3ccccc3)c(-c3ccsc3)n12 | – | – | – | – | 3.45 µM | > 100 µM | 5.46 µM | > 100 µM | 2.53 µM | > 100 µM | 6.27 µM | > 100 µM | – | –
CCN(CC)CCNc1c(OC)cc(C)c2sc3ccccc3c(=O)c12 | – | – | – | – | – | 24.2 µM | – | 10.1 µM | – | 19.2 µM | – | 39.9 µM | – | –
CC(=O)Oc1cc(C)ccc1[C@]1(C)CC[C@H](C)/C1=C\Br | – | – | – | – | 4.87 µM | 16.9 µM | 9.04 µM | 23.9 µM | 2.68 µM | 7.94 µM | 5.38 µM | 23.4 µM | 2.36 µM | 7.16 µM
CC(=O)OCC1OC(n2c(-c3ccccc3)cc(-c3ccco3)c(C#N)c2=O)C(OC(C)=O)C(OC(C)=O)C1OC(C)=O (stereo not drawn) | > 100 µM | > 100 µM | > 100 µM | – | – | – | – | – | – | – | – | – | – | –
CCOC(=O)CCC(=O)C1c2cccc(O)c2C(=O)c2c(O)cccc21 | 1.65 µM | 2.29 µM | – | – | – | – | – | – | – | – | – | – | – | –
COc1cc2c(cc1C)NC(=O)/C2=C\c1cc(OC)c(OC)c(OC)c1 | – | – | – | – | – | – | 15.8 µM | 59.2 µM | > 100 µM | > 100 µM | > 100 µM | > 100 µM | – | –
Nc1c(C(=O)c2ccccc2)sc2nc(-c3cccs3)ccc12 | – | – | – | – | 0.299 µM | 10 µM | 1.23 µM | 5.7 µM | 0.0537 µM | 1.81 µM | 0.335 µM | 12.2 µM | – | –
CCCCCCNC(=O)C1=C(C)NC(C)=C(C(=O)NCCCCCC)C1 | – | – | – | – | – | > 100 µM | – | > 100 µM | – | > 100 µM | – | > 100 µM | – | > 100 µM
Oc1ccc(Br)cc1Sc1cc(Br)ccc1O | – | – | – | – | 11.7 µM | 28.4 µM | 6.58 µM | 23.2 µM | 5.06 µM | 24.3 µM | 4.36 µM | 17.7 µM | – | –
O=C(Nc1ccc(Cl)cc1)Nc1ccc(Cl)c(Cl)c1 | – | – | – | – | 4.08 µM | > 100 µM | 2.34 µM | 7.65 µM | 3.6 µM | > 100 µM | 3.05 µM | 30.6 µM | – | –
CC1CC(c2ccccc2)=Nc2ccccc2S1(=O)=O (stereo not drawn) | 45.8 µM | 30.5 µM | 30.8 µM | – | – | – | – | – | – | – | – | – | – | –
COc1cc2c(cc1OCc1ccccc1)N=C[C@@H]1C/C(=C/C(=O)NCCCN3C(=O)c4cccc5cccc(c45)C3=O)CN1C2=O | – | – | – | – | 0.381 µM | 11.9 µM | 0.708 µM | 6.14 µM | 12.8 µM | > 100 µM | 0.137 µM | 3.06 µM | – | –
COC1=CC23C=CC1[C@@H](c1ccccc1)C2=C(C)C(=O)N3C(=O)NC1CCCCC1 (stereo partly drawn) | – | – | 70.1 µM | – | – | – | – | – | – | – | – | – | – | –
Cc1cc2nc3c(C(OC4OC(CO)C(O)C(O)C4O)C(O)CO)nn(-c4ccccc4)c3nc2cc1C (stereo not drawn) | > 100 µM | – | > 100 µM | – | – | – | – | – | – | – | – | – | – | –
COc1cc(/C=C/c2cc(C(F)(F)F)[nH]c(=O)n2)ccc1OCc1ccccc1F | – | – | – | – | 9.8 µM | 23.3 µM | 13.1 µM | 53 µM | 14.7 µM | > 100 µM | 9.98 µM | 63.1 µM | – | –
COP1(=O)CC2C(Cl)(Cl)C2(C)C1 (stereo not drawn) | > 100 µM | > 100 µM | > 100 µM | – | – | – | – | – | – | – | – | – | – | –
Cc1nn(C(=O)c2ccccc2O)c2c1C(c1ccccc1)SC(N)=N2 (stereo not drawn) | – | – | – | – | – | > 10 µM | – | > 10 µM | – | > 10 µM | – | > 10 µM | – | > 10 µM
CN(C)c1ccc(/C=C2\Oc3cc(O)ccc3C2=O)cc1 | – | – | – | – | – | > 100 µM | – | > 100 µM | – | > 100 µM | – | > 100 µM | – | –
C=CC(=O)N1CCCC(n2nc(-c3ccc(Oc4ccccc4)cc3)c3c(N)ncnc32)C1 (stereo not drawn) | – | – | – | – | 1.89 µM | 17.4 µM | 8.42 µM | 23.6 µM | 4.27 µM | 34.8 µM | 2.14 µM | 18.6 µM | – | –
CCN(CC)CCCCC1CCN(CC(=O)N2CC(C)C(=O)Nc3ccccc32)CC1 (stereo not drawn) | > 100 µM | > 100 µM | – | – | – | – | – | – | – | – | – | – | – | –
CCCCCCC/C=C/[C@H]1O[C@]23C(=O)C[C@@]4(C[C@@H](OC5OC(CO)C(O)C(O)C5O)C[C@@H]4[C@H]2C=C1C)OC3=O (stereo partly drawn) | – | – | – | – | 4.59 µM | 9.87 µM | 6.47 µM | 16.5 µM | 6.99 µM | > 33.3 µM | 0.911 µM | 9.69 µM | – | –
O=C(O)C1CCc2ccc3ccccc3c2C1c1cccc2ccccc12 (stereo not drawn) | – | – | – | – | – | 68.8 µM | – | 85.4 µM | – | 57.8 µM | – | > 100 µM | – | 52.3 µM
c1cnc2c(c1)-n1cccc1C1(CCSCC1)NN2 | – | > 100 µM | – | – | – | – | – | – | – | – | – | – | – | –
Cc1cc(/C=C2\SC(=Nc3ccccc3)N(C3CCCC3)C2=O)c(C)n1-c1ccc(Cl)cc1 | – | – | – | – | > 100 µM | > 100 µM | > 100 µM | > 100 µM | > 100 µM | > 100 µM | > 100 µM | > 100 µM | – | –
CC1(C)C=CC[C@]2(C)[C@H]3CC[C@@H]4[C@H]5[C@H](C(=O)/C=C/c6cccnc6)CC[C@]5(CO)CC[C@@]4(C)[C@]3(C)CC[C@@H]12 | – | – | – | – | 1.36 µM | 2.69 µM | 1.27 µM | 2.67 µM | – | – | – | – | – | –
